Assay results reported in patent US20150094474A1, “AGRICULTURAL CHEMICALS” (Redx Pharma Ltd., priority 2012, published 2015).

Experiments:
peas = assay: Herbicidal bioassay, peas (% necrosis); type: in vivo
Experimental: (§1) A laboratory bioassay was conducted to screen ten compounds (Fluazifop (25); Ethyl fluazifop (62); five fluazifop analogues: 27, 28, 63, 64 and 65; mesofulfuron (6); and two mesosulfuron analogues: 8 and 61. for activity against Lolium perenne, barley, peas and Chinese cabbage. Compounds were diluted in DMSO. Controls were performed using both DMSO and water.
(§2) Plants were obtained as seeds and were grown to the 2-4 true leaf stage. Plants were grown individually in seed trays. Each plant (in an approximately 3 cm diameter plug) was then detached from the tray for spraying. Environmental conditions were closely monitored and recorded and were within the optimal range of the target species.
(§3) The compounds were screened at a range of six concentrations, eg. 0.05%, 0.01%, 0.005%, 0.001%, 0.0005% and 0.0001%. Treatments will be applied directly onto the plants, using a potter tower.
(§4) One plant of each type will be sprayed using a potter tower. The 4 different types of weeds will be placed in a 10 cm diameter area underneath the potter sprayer and sprayed simultaneously. The growth of the plants and any Phytotoxicity effects will then be assessed at specified growth intervals, according to EPPO guideline PP1/135. Five replicates will be performed for each treatment, for each species.

barley = assay: Herbicidal bioassay, barley (% necrosis); type: in vivo
Experimental: as §1, §2, §3, §4

CC(Oc1ccc(Oc2ccc(C(F)(F)F)cn2)cc1)C(=O)O (stereo not drawn) [Compound 25, Fluazifop, reference compound]
Sum of % necrosis in Peas (peas; Dose 0.000001, Day 0): C (less than 50% necrosis)
Sum of % necrosis in Peas (peas; Dose 0.000001, Day 1): C (less than 50% necrosis)
Sum of % necrosis in Peas (peas; Dose 0.000001, Day 3): C (less than 50% necrosis)
Sum of % necrosis in Peas (peas; Dose 0.000001, Day 7): C (less than 50% necrosis)
Sum of % necrosis in Peas (peas; Dose 0.000001, Day 10): C (less than 50% necrosis)
Sum of % necrosis in Peas (peas; Dose 0.000001, Day 14): C (less than 50% necrosis)
Sum of % necrosis in Peas (peas; Dose 0.000001, Day 21): C (less than 50% necrosis)
Sum of % necrosis in Peas (peas; Dose 0.000005, Day 0): C (less than 50% necrosis)
Sum of % necrosis in Peas (peas; Dose 0.000005, Day 1): C (less than 50% necrosis)
Sum of % necrosis in Peas (peas; Dose 0.000005, Day 3): C (less than 50% necrosis)
Sum of % necrosis in Peas (peas; Dose 0.000005, Day 7): C (less than 50% necrosis)
Sum of % necrosis in Peas (peas; Dose 0.000005, Day 10): C (less than 50% necrosis)
Sum of % necrosis in Peas (peas; Dose 0.000005, Day 14): C (less than 50% necrosis)
Sum of % necrosis in Peas (peas; Dose 0.000005, Day 21): C (less than 50% necrosis)
Sum of % necrosis in Peas (peas; Dose 0.00001, Day 0): C (less than 50% necrosis)
Sum of % necrosis in Peas (peas; Dose 0.00001, Day 1): C (less than 50% necrosis)
Sum of % necrosis in Peas (peas; Dose 0.00001, Day 3): C (less than 50% necrosis)
Sum of % necrosis in Peas (peas; Dose 0.00001, Day 7): C (less than 50% necrosis)
Sum of % necrosis in Peas (peas; Dose 0.00001, Day 10): B (50%-80% necrosis)
Sum of % necrosis in Peas (peas; Dose 0.00001, Day 14): B (50%-80% necrosis)
Sum of % necrosis in Peas (peas; Dose 0.00001, Day 21): A (over 80% necrosis)
Sum of % necrosis in Peas (peas; Dose 0.00005, Day 0): C (less than 50% necrosis)
Sum of % necrosis in Peas (peas; Dose 0.00005, Day 1): C (less than 50% necrosis)
Sum of % necrosis in Peas (peas; Dose 0.00005, Day 3): C (less than 50% necrosis)
Sum of % necrosis in Peas (peas; Dose 0.00005, Day 7): C (less than 50% necrosis)
Sum of % necrosis in Peas (peas; Dose 0.00005, Day 10): C (less than 50% necrosis)
Sum of % necrosis in Peas (peas; Dose 0.00005, Day 14): C (less than 50% necrosis)
Sum of % necrosis in Peas (peas; Dose 0.00005, Day 21): A (over 80% necrosis)
Sum of % necrosis in Peas (peas; Dose 0.0001, Day 0): C (less than 50% necrosis)
Sum of % necrosis in Peas (peas; Dose 0.0001, Day 1): C (less than 50% necrosis)
Sum of % necrosis in Peas (peas; Dose 0.0001, Day 3): C (less than 50% necrosis)
Sum of % necrosis in Peas (peas; Dose 0.0001, Day 7): C (less than 50% necrosis)
Sum of % necrosis in Peas (peas; Dose 0.0001, Day 10): C (less than 50% necrosis)
Sum of % necrosis in Peas (peas; Dose 0.0001, Day 14): C (less than 50% necrosis)
Sum of % necrosis in Peas (peas; Dose 0.0001, Day 21): A (over 80% necrosis)
Sum of % necrosis in Peas (peas; Dose 0.0005, Day 0): C (less than 50% necrosis)
Sum of % necrosis in Peas (peas; Dose 0.0005, Day 1): C (less than 50% necrosis)
Sum of % necrosis in Peas (peas; Dose 0.0005, Day 3): C (less than 50% necrosis)
Sum of % necrosis in Peas (peas; Dose 0.0005, Day 7): C (less than 50% necrosis)
Sum of % necrosis in Peas (peas; Dose 0.0005, Day 10): C (less than 50% necrosis)
Sum of % necrosis in Peas (peas; Dose 0.0005, Day 14): C (less than 50% necrosis)
Sum of % necrosis in Peas (peas; Dose 0.0005, Day 21): A (over 80% necrosis)
Sum of % necrosis in barley (barley; Dose 0.000001, Day 0): C (less than 50% necrosis)
Sum of % necrosis in barley (barley; Dose 0.000001, Day 1): C (less than 50% necrosis)
Sum of % necrosis in barley (barley; Dose 0.000001, Day 3): C (less than 50% necrosis)
Sum of % necrosis in barley (barley; Dose 0.000001, Day 7): C (less than 50% necrosis)
Sum of % necrosis in barley (barley; Dose 0.000001, Day 10): C (less than 50% necrosis)
Sum of % necrosis in barley (barley; Dose 0.000001, Day 14): C (less than 50% necrosis)
Sum of % necrosis in barley (barley; Dose 0.000001, Day 21): C (less than 50% necrosis)
Sum of % necrosis in barley (barley; Dose 0.000005, Day 0): C (less than 50% necrosis)
Sum of % necrosis in barley (barley; Dose 0.000005, Day 1): C (less than 50% necrosis)
Sum of % necrosis in barley (barley; Dose 0.000005, Day 3): C (less than 50% necrosis)
Sum of % necrosis in barley (barley; Dose 0.000005, Day 7): C (less than 50% necrosis)
Sum of % necrosis in barley (barley; Dose 0.000005, Day 10): C (less than 50% necrosis)
Sum of % necrosis in barley (barley; Dose 0.000005, Day 14): C (less than 50% necrosis)
Sum of % necrosis in barley (barley; Dose 0.000005, Day 21): C (less than 50% necrosis)
Sum of % necrosis in barley (barley; Dose 0.00001, Day 0): C (less than 50% necrosis)
Sum of % necrosis in barley (barley; Dose 0.00001, Day 1): C (less than 50% necrosis)
Sum of % necrosis in barley (barley; Dose 0.00001, Day 3): C (less than 50% necrosis)
Sum of % necrosis in barley (barley; Dose 0.00001, Day 7): C (less than 50% necrosis)
Sum of % necrosis in barley (barley; Dose 0.00001, Day 10): C (less than 50% necrosis)
Sum of % necrosis in barley (barley; Dose 0.00001, Day 14): C (less than 50% necrosis)
Sum of % necrosis in barley (barley; Dose 0.00001, Day 21): C (less than 50% necrosis)
Sum of % necrosis in barley (barley; Dose 0.00005, Day 0): C (less than 50% necrosis)
Sum of % necrosis in barley (barley; Dose 0.00005, Day 1): C (less than 50% necrosis)
Sum of % necrosis in barley (barley; Dose 0.00005, Day 3): C (less than 50% necrosis)
Sum of % necrosis in barley (barley; Dose 0.00005, Day 7): C (less than 50% necrosis)
Sum of % necrosis in barley (barley; Dose 0.00005, Day 10): C (less than 50% necrosis)
Sum of % necrosis in barley (barley; Dose 0.00005, Day 14): C (less than 50% necrosis)
Sum of % necrosis in barley (barley; Dose 0.00005, Day 21): A (over 80% necrosis)
Sum of % necrosis in barley (barley; Dose 0.0001, Day 0): C (less than 50% necrosis)
Sum of % necrosis in barley (barley; Dose 0.0001, Day 1): C (less than 50% necrosis)
Sum of % necrosis in barley (barley; Dose 0.0001, Day 3): C (less than 50% necrosis)
Sum of % necrosis in barley (barley; Dose 0.0001, Day 7): C (less than 50% necrosis)
Sum of % necrosis in barley (barley; Dose 0.0001, Day 10): C (less than 50% necrosis)
Sum of % necrosis in barley (barley; Dose 0.0001, Day 14): C (less than 50% necrosis)
Sum of % necrosis in barley (barley; Dose 0.0001, Day 21): A (over 80% necrosis)
Sum of % necrosis in barley (barley; Dose 0.0005, Day 0): C (less than 50% necrosis)
Sum of % necrosis in barley (barley; Dose 0.0005, Day 1): C (less than 50% necrosis)
Sum of % necrosis in barley (barley; Dose 0.0005, Day 3): C (less than 50% necrosis)
Sum of % necrosis in barley (barley; Dose 0.0005, Day 7): C (less than 50% necrosis)
Sum of % necrosis in barley (barley; Dose 0.0005, Day 10): C (less than 50% necrosis)
Sum of % necrosis in barley (barley; Dose 0.0005, Day 14): B (50%-80% necrosis)
Sum of % necrosis in barley (barley; Dose 0.0005, Day 21): A (over 80% necrosis)
